The target in the test is T1, human chemokine receptor CCR3 (Homo sapiens, UniProt P51677).
T1 construct: expressed in transfected cells; host or cells: K562 cell line (hCCR3-C1 cells), membrane preparation
T1 sequence (P51677 1-355): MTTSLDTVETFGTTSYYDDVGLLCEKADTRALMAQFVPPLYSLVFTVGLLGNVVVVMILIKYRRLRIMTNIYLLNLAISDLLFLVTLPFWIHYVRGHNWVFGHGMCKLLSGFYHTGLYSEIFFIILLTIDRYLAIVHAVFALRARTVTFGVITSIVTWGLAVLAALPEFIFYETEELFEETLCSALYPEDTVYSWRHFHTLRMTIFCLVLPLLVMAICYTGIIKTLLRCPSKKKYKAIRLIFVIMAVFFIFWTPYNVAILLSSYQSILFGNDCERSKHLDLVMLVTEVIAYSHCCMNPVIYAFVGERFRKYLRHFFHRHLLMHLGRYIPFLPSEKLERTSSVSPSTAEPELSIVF
The test can be described thus: CCR3 receptor binding assay (SPA, 125I-eotaxin-1 displacement, hCCR3-C1 K562 cell membranes). The settings on record: human Eotaxin-1 at human CCR3-Rezeptor; for inhibition at 1 µM: read-out: CCR3 % inh @ 1 μM; for Ki: dose range 0.1 to 10000 nM. As for the experimental part:
The CCR3 receptor binding test is based on a K562 cell line (leukemia myelogenic blast cells) transfected with the human chemokine receptor CCR3 (hCCR3-C1 cells). The cell membranes were prepared by disrupting the hCCR3-C1 cells by […]. The preparation was centrifuged at 400 g 4° C. for 30 min. The supernatant was transferred into fresh tubes followed by a second centrifugation at 48000 g, 4° C. for 1 h. The membranes were re-suspended in the SPA incubation buffer (25 mM HEPES, 25 mM MgCl2 6×H2O, 1 mM CaCl2 2×H2O) without bovine serum albumin and homogenized by passing through a single use needle (Terumo, 23Gx1″). The membranes were stored in aliquots at −80° C.
The CCR3 receptor binding assay was performed in a Scintillation Proximity Assay (SPA) design with the radioligand recombinant human ^125Iodine-eotaxin-1. Cell membranes of hCCR3 C1 cells were again homogenized by passing through a single use needle (Terumo, 23Gx1″) and diluted in SPA incubation buffer in suitable concentrations (0.5-10 μg protein/well) in 96 well microtiter plates (1450-514, Perkin Elmer). The SPA assay was set up in the SPA incubation buffer with a final volume of 200 μl and final concentration of 25 mM HEPES, 25 mM MgCl2 6×H2O, 1 mM CaCl2 2×H2O and 0.1% bovine serum albumin. The SPA assay mixture contained 60 μl of the membrane suspension, 80 μl of Wheat Germ Agglutinin coated PVT beads (organic scintillator, GE Healthcare, RPNQ-0001) 0.2 mg/well), 40 μl of recombinant human ^125Jodine-eotaxin-1 (Biotrend), diluted in SPA buffer to a final concentration of 30.000 dpm per well, and 20 μl of the test compound (dissolved in DMSO dilutions). The SPA assay mixture was incubated for 2 h at room temperature. Bound radioactivity was determined with a scintillation counter (Micro Beta “Trilux”, Wallac). Included were controls for total binding (no displacer added, Bo) and non-specific binding (NSB) by adding unlabelled recombinant human Eotaxin-1 (Biotrend, Cat #300-21) or a reference compound.
Determination of the affinity of a test compound was calculated by subtraction of the non-specific binding (NSB) from the total binding (Bo) or the binding in the presence of the test compound (B) at a given compound concentration. […] The Bo-NSB value was set to 0% inhibition.
% inhibition and Ki values are (human Eotaxin-1 at human CCR3-Rezeptor): […]

As to `COc1ccccc1C1CCCN(C(=O)[C@H]2CCC(=O)N2C2CCN(Cc3ccc(Cl)c(C)c3)CC2)C1` (stereo partly shown) [Example 43], the inhibitory constant (Ki) was 523 nM. For the same compound, for the setting “1 μM test compound”, the inhibition at 1 µM was found to be 59%.

Consider `Cc1cc(CN2CCC(N3C(=O)CC[C@@H]3C(=O)N[C@H]3CC[C@H](NC(=O)Nc4ccccc4)CC3)CC2)ccc1Cl` [Example 44], for which the affinity corresponds to a Ki of 552 nM. In addition, where the note is “1 μM test compound”, the inhibition at 1 µM was found to be 63%.

Regarding `Cc1cc(CN2CCC(N3C(=O)CC[C@H]3C(=O)NCc3ccnn3C)CC2)ccc1Cl` [Example 45], the inhibition at 1 µM (1 μM test compound) was determined as 50%.

The compound `Cc1cc(CN2CCC(N3C(=O)CC[C@H]3C(=O)NCc3ccccc3)CC2)ccc1Cl` [Example 46] registered an inhibition constant (Ki) of 873 nM. Besides, the inhibition at 1 µM (1 μM test compound) is 44%.

As to `Cc1cc(CN2CCC(N3C(=O)CC[C@H]3C(=O)NCc3noc(C4CCCC4)n3)CC2)ccc1Cl` [Example 47], the affinity, expressed as Ki, was 1190 nM. In addition, under “1 μM test compound”, the inhibition at 1 µM worked out at 31%.

`Cc1cc(CN2CCC(N3C(=O)CC[C@H]3C(=O)NC3CCC(F)(F)CC3)CC2)ccc1Cl` [Example 48] yielded an inhibitory constant (Ki) of 965 nM. For the setting “1 μM test compound”, the inhibition at 1 µM was determined as 40%.

`CCCCS(=O)(=O)NC1CCCN(C(=O)[C@@H]2CCC(=O)N2C2CCN(Cc3ccc(Cl)c(C)c3)CC2)C1` (stereo partly shown) [Example 49]: the Ki is 1180 nM. Further, the inhibition at 1 µM (1 μM test compound) is 41%.

Regarding `COc1cc(OC)nc(CNC(=O)[C@@H]2CCC(=O)N2C2CCN(Cc3ccc(Cl)c(C)c3)CC2)n1` [Example 50], the inhibition constant (Ki) was 1290 nM. Also, the inhibition at 1 µM (1 μM test compound) came to 41%.

For the compound `Cc1nc(C2(NC(=O)[C@@H]3CCC(=O)N3C3CCN(Cc4ccc(Cl)c(C)c4)CC3)CCCC2)no1` [Example 51], the affinity corresponds to a Ki of 1620 nM. Further, for the setting “1 μM test compound”, the inhibition at 1 µM was found to be 30%.

Compound `Cc1cc(CN2CCC(N3C(=O)CC[C@H]3C(=O)NCc3cc(C(C)C)no3)CC2)ccc1Cl` [Example 52] returned an inhibition constant (Ki) of 1750 nM. For the same compound, where the note is “1 μM test compound”, the inhibition at 1 µM stood at 28%.

`Cc1cc(CN2CCC(N3C(=O)CC[C@H]3C(=O)NC3CCN(S(C)(=O)=O)C3)CC2)ccc1Cl` (stereo partly shown) [Example 53] showed a Ki of 2010 nM. For the same compound, the inhibition at 1 µM (1 μM test compound) was 33%.

`Cc1cc(CN2CCC(N3C(=O)CC[C@@H]3C(=O)N3CCc4cccc(Br)c4C3)CC2)ccc1Cl` [Example 54]: affinity was put at a Ki of 89 nM. Besides, the inhibition at 1 µM (1 μM test compound) came out at 90%.

Compound `COc1cccc2c1CN(C(=O)[C@@H]1CCC(=O)N1C1CCN(Cc3ccc(Cl)c(C)c3)CC1)CC2` [Example 55] had a Ki of 235 nM. Also, the inhibition at 1 µM (1 μM test compound) came to 78%.

In the case of `Cc1cc(CN2CCC(N3C(=O)CC[C@H]3C(=O)N3CCc4cccc(C(F)(F)F)c4C3)CC2)ccc1Cl` [Example 56], the inhibition constant (Ki) came to 254 nM. For the same compound, the inhibition at 1 µM (1 μM test compound) was found to be 76%.

In turn, `Cc1cc(CN2CCC(N3C(=O)CC[C@H]3C(=O)N3CCc4c(F)ccc(F)c4C3)CC2)ccc1Cl` [Example 57] had an inhibition constant Ki of 302 nM. Moreover, the inhibition at 1 µM (1 μM test compound) worked out at 74%.

The compound `Cc1cc(CN2CCC(N3C(=O)CC[C@H]3C(=O)N3CCc4cccc(F)c4C3)CC2)ccc1Cl` [Example 58] gave a Ki of 221 nM. Besides, the inhibition at 1 µM (1 μM test compound) came out at 76%.

Regarding `Cc1cc(CN2CCC(N3C(=O)CC[C@@H]3C(=O)N3CCc4c(F)cccc4C3)CC2)ccc1Cl` [Example 59], the Ki was 402 nM. Moreover, under “1 μM test compound”, the inhibition at 1 µM was 66%.

`Cc1cc(CN2CCC(N3C(=O)CC[C@H]3C(=O)NC3CCN(c4ccccn4)CC3)CC2)ccc1Cl` [Example 60] had a Ki of 430 nM. Also, the inhibition at 1 µM (1 μM test compound) was 65%.

Regarding `Cc1cc(CN2CCC(N3C(=O)CC[C@H]3C(=O)N3Cc4ccccc4C(C)(C)C3)CC2)ccc1Cl` [Example 61], the affinity, expressed as Ki, was 492 nM. Moreover, the inhibition at 1 µM (1 μM test compound) worked out at 57%.

Consider `Cc1cc(CN2CCC(N3C(=O)CC[C@H]3C(=O)N3CCc4cc(F)ccc4C3)CC2)ccc1Cl` [Example 62], for which the affinity corresponds to a Ki of 507 nM. Also, the inhibition at 1 µM (1 μM test compound) was 63%.

Regarding `Cc1cc(CN2CCC(N3C(=O)CC[C@@H]3C(=O)N3Cc4ccccc4C3)CC2)ccc1Cl` [Example 63], the affinity, expressed as Ki, was 518 nM. Also, the inhibition at 1 µM (1 μM test compound) amounted to 60%.

As for `Cc1cc(CN2CCC(N3C(=O)CC[C@@H]3C(=O)Nc3ccc4c(c3)CC(N(C)C)C4)CC2)ccc1Cl` (stereo partly shown) [Example 64], the affinity corresponds to a Ki of 545 nM. Moreover, the inhibition at 1 µM (1 μM test compound) stood at 60%.

`Cc1cc(CN2CCC(N3C(=O)CC[C@@H]3C(=O)N3CCc4c(cccc4C(F)(F)F)C3)CC2)ccc1Cl` [Example 65] showed a Ki of 602 nM. Moreover, the inhibition at 1 µM (1 μM test compound) came out at 57%.

`Cc1cc(CN2CCC(N3C(=O)CC[C@H]3C(=O)Nc3cccc(Cc4ccncc4)c3)CC2)ccc1Cl` [Example 66] came in with an inhibition constant (Ki) of 658 nM. Also, the inhibition at 1 µM (1 μM test compound) was 81%.

For `COCC(NC(=O)C1CCC(=O)N1C1CCN(Cc2ccc(Cl)c(C)c2)CC1)c1nc2ccc(Cl)cc2[nH]1` (stereo not shown) [Example 67], affinity was put at a Ki of 700 nM. Moreover, the inhibition at 1 µM (1 μM test compound) turned out to be 52%.

Compound `Cc1cc(CN2CCC(N3C(=O)CC[C@@H]3C(=O)NCc3cccc4[nH]ccc34)CC2)ccc1Cl` [Example 68] gave a Ki of 715 nM. For the same compound, under “1 μM test compound”, the inhibition at 1 µM was determined as 48%.

On to `Cc1cc(CN2CCC(N3C(=O)CC[C@H]3C(=O)NCc3ccnn3C)CC2)ccc1Cl` [Example 69], for which the “CCR3 % inh @ 1 μM” value (1 μM test compound, 1 µM) was determined as 55%.

On to `Cc1cc(CN2CCC(N3C(=O)CC[C@H]3C(=O)NCc3ccc(Cl)nc3C)CC2)ccc1Cl` [Example 70], for which the affinity corresponds to a Ki of 791 nM. The inhibition at 1 µM (1 μM test compound) came to 46%.

Compound `COc1cccc2c1CCN(C(=O)[C@@H]1CCC(=O)N1C1CCN(Cc3ccc(Cl)c(C)c3)CC1)C2` [Example 71] showed an inhibitory constant (Ki) of 810 nM. Further, the inhibition at 1 µM (1 μM test compound) amounted to 49%.

As to `COc1ccc2c(c1)CN(C(=O)[C@@H]1CCC(=O)N1C1CCN(Cc3ccc(Cl)c(C)c3)CC1)CC2` [Example 72], the Ki turned out to be 875 nM. For the setting “1 μM test compound”, the inhibition at 1 µM was found to be 48%.

The compound `Cc1cc(CN2CCC(N3C(=O)CC[C@H]3C(=O)N3CCc4ccc(F)cc4C3)CC2)ccc1Cl` [Example 73] showed an inhibition constant (Ki) of 922 nM. For the same compound, the inhibition at 1 µM (1 μM test compound) stood at 48%.

`Cc1cc(CN2CCC(N3C(=O)CC[C@@H]3C(=O)N3CCc4ccc([N+](=O)[O-])cc4C3)CC2)ccc1Cl` [Example 74] gave a Ki of 927 nM. Also, the inhibition at 1 µM (1 μM test compound) stood at 46%.

`Cc1cc(CN2C3CCC2CC(N2C(=O)CC[C@@H]2C(=O)Nc2cccc(N(CC(=O)N4CCC4)S(C)(=O)=O)c2)C3)ccc1Cl` (stereo partly shown) [Example 75] came in with an inhibition constant Ki of 30 nM. For the same compound, the inhibition at 1 µM (1 μM test compound) was determined as 97%.

Take `Cc1cc(CN2C3CCC2CC(N2C(=O)CC[C@@H]2C(=O)Nc2cccc(N(CC(=O)N(C)C)S(C)(=O)=O)c2)C3)ccc1Cl` (stereo partly shown) [Example 76]: the Ki is 37 nM. Moreover, the inhibition at 1 µM (1 μM test compound) stood at 97%.

Compound `Cc1cc(CN2C3CCC2CC(N2C(=O)CC[C@@H]2C(=O)Nc2cccc(-c4nnnn4C)c2)C3)ccc1Cl` (stereo partly shown) [Example 77] displayed an inhibition constant Ki of 38 nM. Further, the inhibition at 1 µM (1 μM test compound) amounted to 96%.

Take `Cc1cc(CN2C3CCC2CC(N2C(=O)CC[C@@H]2C(=O)Nc2cccc(N(CC(=O)N(C)C)S(=O)(=O)C4CC4)c2)C3)ccc1Cl` (stereo partly shown) [Example 78]: the Ki is 50 nM. Besides, the inhibition at 1 µM (1 μM test compound) turned out to be 94%.

In turn, `CCS(=O)(=O)N(CC(=O)N(C)C)c1cccc(NC(=O)[C@H]2CCC(=O)N2C2CC3CCC(C2)N3Cc2ccc(Cl)c(C)c2)c1` (stereo partly shown) [Example 79] had a Ki of 52 nM. In addition, the inhibition at 1 µM (1 μM test compound) amounted to 91%.

`CCNS(=O)(=O)c1cccc(NC(=O)[C@H]2CCC(=O)N2C2CC3CCC(C2)N3Cc2ccc(Cl)c(C)c2)c1` (stereo partly shown) [Example 80] had a Ki of 55 nM. The inhibition at 1 µM (1 μM test compound) was determined as 95%.

In the case of `Cc1cc(CN2C3CCC2CC(N2C(=O)CC[C@@H]2C(=O)Nc2cccc(C(N)=O)c2)C3)ccc1Cl` (stereo partly shown) [Example 81], affinity was put at a Ki of 111 nM. Further, the inhibition at 1 µM (1 μM test compound) was determined as 89%.

Usually Ki stands for a measure of affinity in units of concentration, obtained from inhibition or displacement. A low value points to tighter binding.
